# Data from patent US20040151618A1, “Method of increasing the conductivity of water and uses therefor” (priority 2002, published 2004).
# Key:
# mold [1] = experiment: Mold on cornstarch immersed in solution (Example 3); format: cell-based; details: cornstarch in water with 1% sodium benzoate, four weeks
# [2] = test system: growing plant having green leaves and small white flowers; experiment: Plant growth retarder: isolated growing plant sprayed (Example 7); format: in vivo; details: sprayed with water with 10% sodium benzoate, after six hours
# Source text: A growing plant having green leaves and small white flowers was isolated from other plants of the same type. the isolated plant was sprayed with water having a 10% concentration of sodium benzoate. The other plants were not treated.
# grass = experiment: Plant growth retarder: patch of grass sprayed (Example 9); format: in vivo; details: sprayed with water with 10% by weight sodium benzoate, 24 hours
# Source text: A patch of grass about two feet in diameter was sprayed with water having a 10% concentration by weight of sodium benzoate . At the time that the water having the 10% concentration of sodium benzoate was sprayed on this patch of grass the sprayed patch as well as the surrounding grass areas were green and healthy looking.
# [3] = Iron count of applicant after daily drinking of the solution; format: in vivo, human; details: daily drinking of 0.1% solution blended in fruit juice
# Source text: Furthermore, as a result of the higher conductivity of the sodium benzoate solution its electrical resistance is reduced which stabilizes organic colors and prevents their reversion. […] Also, in the pulp and paper industry the brightness of pulp is enhanced which is a result of applicant's solution impeding the deposition of iron. Also, impeding the iron content in drinking water can help to prevent an iron overload problem in humans and animals. Iron overload can result in cellular degradation that is similar to the rusting of a nail. Applicant's sodium benzoate solution can be used to prevent oxygen free radical degradation in humans and animals. Excess iron in human is very dangerous. Human consumption of applicant's solution could prevent hemochromatosis and the need for phlebotomy.
# [4] = test system: psychrotrophic microorganisms; experiment: Count of psychrotrophic microorganisms in minced cod fish fillets stored at 1-2° C. (Plate Count Agar, pour-plate); format: cell-based; set-up: Count of psychrotrophic microorganisms in sample with 0.1% Sodium Benzoate solution: unit not given here; details: for Count of psychrotrophic microorganisms in sample with 1% Sodium Benzoate solution: Example 11; for Count of psychrotrophic microorganisms in sample with 0.1% Sodium Benzoate solution: Example 12
# Description: Cod fish fillets which were frozen at sea were thawed and minced. The minced fillets were divided into two 200 gram portions. To one portion, 20 milliliters of sterile, deionized water was added (10%) and to the other 20 milliliters of the sodium benzoate solution of this invention containing 1% benzoate was added. Both portions were stirred and then placed at 1-2° C. for storage. Samples were taken 2 hours, 7 days and 14 days after mixing. Counts of psychrothrophic microorganisms was done on Plate Count Agar with 0.5% NaCl added by the pour-plate technique. Plated were incubated at 22° C. for 3 days prior to counting colonies. When a nutrient agar-type medium is incubated, using the streak-plate or pour-plate method, cells are individually separated. In incubation, individual cells reproduce rapidly to generate a visible colony of cells, each colony being a pure sample of a single kind of microorganism.
# In the above example, a 1% sodium benzoate solution was used, which is considered to be a stronger than acceptable for a food product, and thus a further tests were performed. In these second tests cod fish fillets which were frozen at sea were thawed and minced. The minced fillets were divided into two 200 gram portions. To one portion, 2 milliliters of sterile, deionized water was added and to the other […] of the sodium benzoate solution of this invention containing 0.1% benzoate was added. As a result in this test the other portion contained only 10% of the amount of benzoate as was in EXAMPLE 11. In other words EXAMPLE 11 was a 1% sodium benzoate solution and EXAMPLE 12 is a 0.1% sodium benzoate solution. Both portions were stirred and then placed at 1-2° C. for storage. Samples were taken 2 hours, 7 days, 14 days and 18 after mixing. Counts of psychrothrophic microorganisms was done on Plate Count Agar with 0.5% NaCI added by the pour-plate technique. Plated were incubated at 22° C. for 3 days prior to counting colonies.
# [5] = Electrical conductivity of tap water with varying concentrations of sodium benzoate; format: physicochemical; details: 10% sodium benzoate plus ingredient that improves adhesion
# Description: Tests were conducted to measure the electrical conductivity of tap water with varying concentrations of sodium benzoate. In these tests the conductivity has been measured in micromho/cm. One micromho/cm (UMHO/CM) equals one microsiemens/cm (US/CM). In other words a micromho is the same as a microsiemen.
# In preparing a 1% solution of applicants solution 37.84 grams of sodium benzoate were dissolved in one gallon of tap water which weighs 3,784 grams. […] The conductivity of the various samples of applicant's invention that were subjected to these tests had conductivities ranging from 635 to 34,500 UMHO/CM. […] For solutions of other strengths, proportional amounts of sodium benzoate were added to a gallon of water. This invention is concerned with concentrations of sodium benzoate in the range of about 0.1% and greater. The current test results have been limited to a maximum concentration of about 10%.
# mold [6] = experiment: Mold and odor on treated wet lap pulp (Example 5); format: cell-based; details: wet lap pulp treated with water with 1% sodium benzoate, almost a year
# Source text: A like portion of wet lap pulp from the same batch as the above wet lap pulp was not treated (wet lap pulp is moist and contains tap water) but was isolated for observation and comparison.
# mold [7] = experiment: Mold on dry dog food sprayed with solution (Example 4); format: cell-based; details: dry dog food sprayed with water with 1% sodium benzoate, three months
# [8] = test system: large potted plants having green leaves and red flowers; experiment: Plant growth retarder: large potted plants watered (Example 10); format: in vivo; details: watered with water with 10% by weight sodium benzoate
# Source text: Three large potted plants having green leaves and red flowers, each plant was about 3 feet tall, were utilized for this EXAMPLE. The three plants were aligned adjacent to each other in a sunny area. The large potted plant to the left was watered with tap water and the plants in the center and to the right were watered with water having a 10% concentration by weight of sodium benzoate. Two days after watering these three large potted plants, the plant to the left retained its green leaves and red flowers. However, the large plant in the center and the one to the right had undergone change. […] Four days after watering the plants the large plant in the center and the one to the right had undergone further change. […] The plant to the left retained its green leaves and red flowers.
# mold [9] = experiment: Mold in opened cranberry-raspberry drink (Example 6); format: cell-based; details: drink with about 1.9% sodium benzoate, three weeks
# Description: A commercially available 16 ounce bottle of cranberry-raspberry drink was opened and one ounce of water having a 30% concentrations of sodium benzoate was added to the contents of the bottle. The resulting cranberry-raspberry drink thus had about a 1.9% concentration of sodium benzoate. A second bottle of the same commercially available drink was opened but not treated in any way.
# [10] = test system: potted plants each having green leaves and violet colored flowers; experiment: Plant growth retarder: potted plant watered (Example 8); format: in vivo; details: watered with water with 10% sodium benzoate, after three days
# Source text: Two similar potted plants each having green leaves and violet colored flowers were obtained for this example. One of the potted plants was watered with tap water and at the same time the other potted plant was watered with water that contained a 10% concentration of sodium benzoate.
# [11] = 0 days at 1-2° Centigrade (sample 2 hours after mixing)
structure (smiles),measurement,setting,value
"O=C([O-])c1ccccc1.[Na+] [Sodium Benzoate, sodium benzoate]",No Mold,mold [1],no evidence of mold
same,Growth Stunned,[2],shriveled and dried up
same,Growth Stunned,grass,appeared straw like and there was no longer any green appearing
same,Iron count,[3],reduced to normal levels
same,Shelf life of fresh seafood maintained at 1-2° C.,[4]; 0.1% sodium benzoate solution,at least 14 days
same,Shelf life of fresh seafood maintained at 1-2° C.,[4]; 1% sodium benzoate solution,at least 14 days
same,Count of psychrotrophic microorganisms in sample with 1% Sodium Benzoate solution,[4]; [11],5
same,Count of psychrotrophic microorganisms in sample with 1% Sodium Benzoate solution,[4]; 7 days at 1-2° Centigrade,4.8
same,Count of psychrotrophic microorganisms in sample with 1% Sodium Benzoate solution,[4]; 14 days at 1-2° Centigrade,5.2
same,Count of psychrotrophic microorganisms in sample with 0.1% Sodium Benzoate solution,[4]; [11],4.21
same,Count of psychrotrophic microorganisms in sample with 0.1% Sodium Benzoate solution,[4]; 7 days at 1-2° Centigrade,4.79
same,Count of psychrotrophic microorganisms in sample with 0.1% Sodium Benzoate solution,[4]; 14 days at 1-2° Centigrade,6.17
same,Count of psychrotrophic microorganisms in sample with 0.1% Sodium Benzoate solution,[4]; 18 days at 1-2° Centigrade,8.09
same,Conductivity of 10% solution with coating additive compared with 10% solution without,[5],substantially the same
same,No Mold,mold [6],no evidence of mold or odor
same,No Mold,mold [7],no evidence of mold
same,Growth Stunned,[8]; four days after watering,remains of the flowers were now brown and only a few brown leaves remained on the branches
same,Appearance of plants,[8]; two days after watering,flowers were no longer red and instead appeared pink and white and the leaves were drooping and were a much lighter shade of green
same,No Mold,mold [9],no evidence of mold
same,Growth Stunned,[10],weathered and dried up
